This note sets out measurements from ChEMBL document CHEMBL1201862, “PubChem BioAssay data set” (2004).

Holding throughout (type): functional
In one assay the test system is BJ. The assay is described as follows: BJ-TERT-LT-ST fibroblast viability loss – cell-based, RAS-independent, luminescence, dose response (AID 1935).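 Further: BJ fibroblasts immortalized with TERT plus LT and ST oncogenes.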 As to conditions: Homo sapiens.
Assay [1] is described as follows: DRD fibroblast viability loss – cell-based, non-viral oncogenic, luminescence, dose response (AID 1934). As to conditions: Homo sapiens.
The target of the next assay is T1, Protein RecA (Mycobacterium tuberculosis, UniProt P9WHJ3).
T1 sequence (P9WHJ3 whole entry): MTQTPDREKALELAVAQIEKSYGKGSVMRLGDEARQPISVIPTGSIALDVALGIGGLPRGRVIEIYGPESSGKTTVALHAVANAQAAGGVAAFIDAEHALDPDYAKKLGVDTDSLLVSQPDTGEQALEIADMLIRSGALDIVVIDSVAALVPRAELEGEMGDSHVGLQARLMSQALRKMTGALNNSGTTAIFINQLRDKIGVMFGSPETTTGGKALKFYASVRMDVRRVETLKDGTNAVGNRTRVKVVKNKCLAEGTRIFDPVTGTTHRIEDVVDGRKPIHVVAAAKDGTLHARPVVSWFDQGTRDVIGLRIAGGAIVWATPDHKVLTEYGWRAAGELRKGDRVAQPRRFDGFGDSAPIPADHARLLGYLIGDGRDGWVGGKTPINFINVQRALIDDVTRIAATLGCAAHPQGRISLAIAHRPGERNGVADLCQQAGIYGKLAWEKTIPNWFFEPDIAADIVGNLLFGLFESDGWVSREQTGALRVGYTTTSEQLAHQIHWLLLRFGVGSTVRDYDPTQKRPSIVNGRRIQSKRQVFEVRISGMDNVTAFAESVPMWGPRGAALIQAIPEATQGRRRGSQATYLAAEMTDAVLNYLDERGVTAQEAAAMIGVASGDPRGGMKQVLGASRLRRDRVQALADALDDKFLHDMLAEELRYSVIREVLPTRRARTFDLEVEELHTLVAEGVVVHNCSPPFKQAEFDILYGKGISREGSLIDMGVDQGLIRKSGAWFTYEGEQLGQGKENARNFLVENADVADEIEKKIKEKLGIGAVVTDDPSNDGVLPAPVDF
The assay is described as follows: Fluorescence Cell-Free Homogeneous Dose Retest to Identify Inhibitors of RecA-Intein Splicing Activity. [Related pubchem assays (depositor defined):AID2097, AID2223, AID489010, AID492950].

The EC50 is the concentration giving half of the maximal effect.

Structures are written as SMILES. The source made the active and inactive calls. No stated cut-off is given here; in the data, actives have a measured EC50 and inactives only a lower limit.

With `Cc1oc2c(c1C(=O)N1CCC(C)CC1)C(=O)c1ccccc1C2=O`, the EC50 is > 75 µM (not active) in the assay with BJ, 16.5 µM (active) in assay [1] and 1.09 µM (active) on Protein RecA.
